# Measured values: patent EP1151753B1, “PREVENTIVE AND THERAPEUTIC AGENTS FOR ARTERIOSCLEROSIS” (CCI CORPORATION, priority 1999, dated 2000)
# Tested on: cholesterol-loaded rabbits
# Assay: Evaluation of morbid alteration of aorta (Sudan dyeing), cholesterol-loaded rabbit model
# Format: in vivo, New Zealand White (NZW) type rabbits
# Details: cholesterol-loaded NZW rabbits
# Excerpt: In the test, female and male New Zealand White (NZW) type rabbits (SPF: Kitayama Labels K.K.) which were seven weeks old at the time of arrival at the laboratory were subjected to quarantine and two weeks' domestication and visually inspected as to the general condition and, after the absence of abnormality was confirmed, put to use. The body weights at the time of starting administration (at the age of nine weeks) were in the range of 1.8 - 2.2 kg in the case of male rabbits and in the range of 1.6 - 2.0 kg in the case of female rabbits. Throughout the entire duration of the test, the animals were raised as accommodated one each in hanger cages of aluminum installed on a stainless steel rack inside a clean feeding chamber set at a temperature in the range of 20 - 26°, a relative humidity in the range of 40 - 70%, a number of ventilations in the range of 10 - 20 turns/hour, and an illumination time within the range of 12 hours (7.00 - 19:00). They were fed on a commercially available radioactively sterilized solid feed (a product containing 1% of cholesterol, made by Oriental Kobo K.K. and sold under the product code of "RC4") and they were left freely drinking the tap water delivered by an automatic water supplying device.
# The dosage of TMG was set at 800 mg/head/day. The TMG was solved in reagent grade ethanol. […]
smiles,measurement,setting,value
"Cc1c(C)c2c(c(C)c1O)CCC(C)(C[C@H]1O[C@H](CO)[C@@H](O)[C@H](O)[C@H]1O)O2 (stereo partly drawn) [TMG, 2-(α-D-glucopyranosyl)methyl-2,5,7,8-tetramethyl chroman-6-ol]",Surface involvement (%),"area occupied by deposited lipid in whole area of aorta, TMG 800 mg/head/day in feed, 12th week, control 79.7 ± 3.2, p < 0.01",50.2 ± 5.7 %
same,occurrence of the atherosclerosis,TMG 800 mg/head/day for 12 weeks,significantly repressing
